According to patent publication US9944721B2, “Polysialic acid and use for treatment of neurodegenerative and neuroinflammatory diseases” (RHEINISCHE FRIEDRICH-WILHELMS UNIVERSITÄT BONN, priority 2013, dated 2018):

Legend:
[1] = system: humanized Siglec-11 transgenic mice or littermate control mice; assay: Laser-induced animal model of macular degeneration, intravitreal injection; assay type: in vivo
Description: An animal model of macular degeneration was induced by laser technology. Experimental damage of the mouse retina using a laser is a well-accepted animal model for age-related macular degeneration. Laser coagulation and direct damage of Bruch's membrane rapidly lead to microglia and complement activation and induce vascular leakage. Fluorescence angiography is an established method to detect vascular leakage in the retina.
Humanized Siglec-11 transgenic mice (Wang Y, 2009, dissertation, University Bonn, uniform resource name: urn:nbn:de:hbz:5N-18095) or littermate control mice were used in this experiment.
Three argon laser coagulation spots were induced (125 mW, 100 ms, […], Viridis, Quantel Medical, France) in the retina of the mice. Directly afterwards the mice were injected intra-vitreally with PSA-20 (3 μg/per eye) or a PBS vehicle control.
Retinal tissue was analyzed 48 hours after the laser lesion by immunohistochemistry. Therefore, whole mount immunostaining was performed with a polyclonal rabbit-anti-ionized calcium-binding adapter molecule 1 (Iba1) antibody followed by fluorescein (FITC)-conjugated secondary antibody directed against rabbit immunoglobulin (IgG). Confocal images of the inner plexiform layer from the retina were collected and the percentage of the activated amoeboid microglia in relation to the total Iba1-positive microglia was determined in and outside the laser lesion of the PSA-20 treated Siglec-11 and the control mice.
To determine the inflammation mediated vascular leakage, fluorescein angiography was performed 48 hours after laser coagulation lesion of the retina. In detail, anesthetized animals were injected intraperitoneally with 0.1 ml 2.5% fluorescein in 0.9% sterile NaCl. Late stage angiography pictures were taken eleven minutes after fluorescein injection on a Spectralis HRA2 retina angiograph (Heidelberg Engineering) to visualize vessel leakage. Angiography pictures were exported from Heidelberg Eye Explorer Software as jpeg files. Pixel intensities of 6 regions of interest (roi) per picture were quantified with ImageJ and background fluorescence was subtracted.
At 48 hours before angiography, three argon laser coagulation spots were induced (125 mW, 100 ms, 100 μm, Viridis, Quantel Medical, France) in the retina of the Siglec-11 transgenic or littermate control mice. Mice were injected intra-vitreally with PSA-20 (3 μg/per eye) or a PBS vehicle control. […] Statistically significant groups were determined by One-Way ANOVA and Student's t-test. […]
Again, the laser damage of retinas was induced in the humanized Siglec-11 transgenic mice or littermate controls as described above. […] Single data points indicate individual eyes analyzed. Data were analyzed by ordinary one-way ANOVA followed by Tukey's multiple comparisons test. […]

[2] = system: human iPS cell derived neurons; assay: MTT cell viability of human iPS cell derived neurons; assay type: cell-based; settings: 24 hours
Protocol: Human induced pluripotent stem (iPS) cells (Foreskin-1, WiCell) were used for generation of primitive neural stem cell (pNSC) and their differentiation into neurons according to a modified protocol, which was described to obtain primitive neural precursors from human embryonic stem cells. Briefly, iPS cells were cultured on feeder cells to form small colonies. Next, medium was changed to neural stem cell medium (DMEM/F12:Neurobasal; GIBCO) in the presence of leukaemia inhibiting factor (LIF; Millipore, 10 ng/ml) and three small molecules CHIR99021 (inhibitor of GSK-30, Axon Medchem, […]) and SB431542 (inhibitor of TGF-β and activin receptors; Axon Medchem, 3 μM), and Compound E (inhibitor of γ-secretase; Axon Medchem, 0.1 μM) for 10 days. […]
Cell viability was determined by the (3-(4,5-Dimethylthiazol-2-yl)-2,5-diphenyltetrazolium bromide (MTT) assay (Millipore). Cells were treated for 24 hours with 5 nM, 15 nM, 50 nM, 150 nM, 500 nM, 1.5 μM, 5 μM, 15 μM, 50 μM or 150 μM of PSA-20. After 20 hours of stimulation, 10 μl of MTT-reagent was added and cells were cultured for another 4 hours. Then, cells were lysed with isopropanol containing 0.04 M HCl 1M to measure the dye formazan. The light absorbance of the purple formazan dye was determined by a spectrophotometer at a wavelength of 570 nm with a reference wavelength of 630 nm (Perkin Elmer, Envision Multiplate Reader). […]

## poly-(α(2→8)Neu5Ac)n [PSA-20]
[1]; Siglec-11 transgenic mice, 3 μg/per eye intravitreal, 48 hours after laser lesion, FIG. 7D
  Microglial activation (activated amoeboid microglia to total Iba1-positive microglia): significantly reduced
[1]; Siglec-11 transgenic mice, 3 μg/per eye intravitreal, 48 hours after laser, FIG. 7E
  vascular leakage (fluorescein angiography): significantly reduced vascular leakage
[1]; normal mice, 3 μg/per eye intravitreal, 48 hours after laser lesion
  microglial Iba1 immunoreactivity: No effect
[1]; repeat, at least 8 retinas per group, Siglec-11 transgenic mice, 48 hours, vehicle 117.8+/−7.8, FIG. 7G
  vascular leakage (fluorescein angiography): 84.07+/−8.2
[2]; 5 nM to 150 μM, FIG. 10A
  cell viability of human neurons (MTT): not reduced
[2]; 150 μM
  neuronal cell viability (MTT): no interference
